“And” between values parts separate entries of the source, which are not always exact repeats. Equal values may be shown once. Where a name gives a salt, the structure may show the parent alone. Read-outs that look alike come from different tables or passages of the source.
Columns and labels:
K562/Dox cells = experiment: MTT colorimetric assay, cytotoxicity on resistant K562/Dox; format: cell-based; settings: for IC50: Homo sapiens, K562, 48 h, read-out: IC50 K562/Dox; for toxicity: 50 μM
Method: This colorimetric technique is based on the ability of viable cells to capture MTT and reduce it through the mitochondrial enzyme succinic dehydrogenase to its insoluble form, formazan crystals. The target compounds dissolved in DMSO (0.5% v/v as final concentration which was non-toxic to cells) at a maximum concentration of 50 µM were exposed to 5 × 10^4 cells distributed in a 96-well plate and incubated for 48 h. […] After this time, the plate was centrifuged at 2000 rpm for 10 min, and 100 µL of DMSO was added to dissolve the formazan crystals formed. Absorbance (Abs) was read at a wavelength of 595 nm in an iMark microplate reader (Bio-Rad, USA). The percentages of cytotoxicity were determined as compared to DMSO treated control cells, which were considered 100% viable as showing the same level of growth as the untreated cells.

P-gp = P-gp (Homo sapiens, UniProt P08183); experiment: Rhodamine 123 intracellular accumulation assay in K562/Dox (flow cytometry); settings: for Rho123 accumulation / anti-P-gp activity / MEC (minimum effective concentration): K562/Dox; for Rho123 accumulation / anti-P-gp activity: highest concentrations tested (50 or 6.25 µM); for FAR (fluorescence activity ratio): Rho123, K562/Dox; for MEC (minimum effective concentration): Rho123 accumulation
K562 cells = experiment: MTT colorimetric assay, cytotoxicity on sensitive K562; format: cell-based; settings: for IC50: MTT, 48 h; for toxicity: 50 μM, K562, MTT
Method: This colorimetric technique is based on the ability of viable cells to capture MTT and reduce it through the mitochondrial enzyme succinic dehydrogenase to its insoluble form, formazan crystals. […] After this time, the plate was centrifuged at 2000 rpm for 10 min, and 100 µL of DMSO was added to dissolve the formazan crystals formed. Absorbance (Abs) was read at a wavelength of 595 nm in an iMark microplate reader (Bio-Rad, USA).

P-gp, sequence (P08183 whole entry): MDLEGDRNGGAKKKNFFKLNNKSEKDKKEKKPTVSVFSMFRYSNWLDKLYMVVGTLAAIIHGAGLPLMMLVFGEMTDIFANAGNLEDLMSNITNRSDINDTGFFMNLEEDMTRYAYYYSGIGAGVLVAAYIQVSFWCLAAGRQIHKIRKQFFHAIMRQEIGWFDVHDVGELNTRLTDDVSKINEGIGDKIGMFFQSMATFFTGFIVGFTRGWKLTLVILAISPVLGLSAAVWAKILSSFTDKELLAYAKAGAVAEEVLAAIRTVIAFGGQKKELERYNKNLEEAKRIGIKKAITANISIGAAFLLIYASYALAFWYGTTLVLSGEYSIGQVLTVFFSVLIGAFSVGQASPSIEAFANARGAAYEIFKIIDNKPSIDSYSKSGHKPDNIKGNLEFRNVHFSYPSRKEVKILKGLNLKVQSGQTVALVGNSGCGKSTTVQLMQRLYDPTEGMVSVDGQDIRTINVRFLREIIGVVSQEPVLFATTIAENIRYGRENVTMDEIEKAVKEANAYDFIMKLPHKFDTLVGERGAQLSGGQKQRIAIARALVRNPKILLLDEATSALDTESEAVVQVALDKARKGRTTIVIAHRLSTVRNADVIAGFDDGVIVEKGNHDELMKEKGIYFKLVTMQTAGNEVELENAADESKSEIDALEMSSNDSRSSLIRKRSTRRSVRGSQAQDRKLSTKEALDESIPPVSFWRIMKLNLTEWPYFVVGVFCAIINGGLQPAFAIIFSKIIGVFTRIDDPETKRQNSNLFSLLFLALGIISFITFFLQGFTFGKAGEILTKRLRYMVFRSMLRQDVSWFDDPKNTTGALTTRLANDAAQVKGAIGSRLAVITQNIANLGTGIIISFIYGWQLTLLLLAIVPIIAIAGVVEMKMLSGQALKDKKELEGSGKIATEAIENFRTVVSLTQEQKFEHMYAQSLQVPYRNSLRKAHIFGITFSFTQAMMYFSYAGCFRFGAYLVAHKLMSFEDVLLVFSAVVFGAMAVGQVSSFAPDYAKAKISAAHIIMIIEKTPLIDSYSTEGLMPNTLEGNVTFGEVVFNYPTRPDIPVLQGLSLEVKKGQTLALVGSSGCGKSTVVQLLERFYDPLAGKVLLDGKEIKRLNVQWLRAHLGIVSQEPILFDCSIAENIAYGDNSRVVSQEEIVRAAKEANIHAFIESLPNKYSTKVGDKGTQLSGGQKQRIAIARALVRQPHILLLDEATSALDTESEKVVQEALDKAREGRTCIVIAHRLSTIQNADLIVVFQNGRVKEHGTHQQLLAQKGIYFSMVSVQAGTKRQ

| SMILES | IC50 (K562/Dox cells; MTT, 48 h, K562/Dox) [µM] | FAR (fluorescence activity ratio) (P-gp; 50 µM) | MEC (minimum effective concentration) (P-gp) | IC50 (K562 cells; Homo sapiens, K562, 48 h, K562) [µM] | FAR (fluorescence activity ratio) (P-gp; 25 µM) | FAR (fluorescence activity ratio) (P-gp; 12.50 µM) | FAR (fluorescence activity ratio) (P-gp; 3.12 µM) | FAR (fluorescence activity ratio) (P-gp; 6.25 µM) | further results |
| --- | --- | --- | --- | --- | --- | --- | --- | --- | --- |
| C=C(C)[C@@H]1CC[C@]2(COC(=O)c3ccc(OC)cc3)CC[C@]3(C)[C@H](CC[C@@H]4[C@@]5(C)CC[C@H](O)C(C)(C)[C@@H]5CC[C@]43C)[C@@H]12 [Compound 3a] | > 50 | 0.88 ± 0.02 | > 50 µM | > 50 | – | – | – | – | Rho123 accumulation / anti-P-gp activity (P-gp): did not induce statistically significant Rho123 accumulation |
| C=C(C)[C@@H]1CC[C@]2(COC(=O)c3cc(OC)c(OC)c(OC)c3)CC[C@]3(C)[C@H](CC[C@@H]4[C@@]5(C)CC[C@H](O)C(C)(C)[C@@H]5CC[C@]43C)[C@@H]12 [Compound 3b] | > 50 | 1.06 ± 0.003 | 50 µM | > 50 | 0.94 ± 0.03 | – | – | – | – |
| C=C(C)[C@@H]1CC[C@]2(COC(=O)/C=C/c3ccc(OC)cc3OC)CC[C@]3(C)[C@H](CC[C@@H]4[C@@]5(C)CC[C@H](O)C(C)(C)[C@@H]5CC[C@]43C)[C@@H]12 [Compound 3c] | > 50 | 0.74 ± 0.05 | > 50 µM | > 50 | – | – | – | – | Rho123 accumulation / anti-P-gp activity (P-gp): did not induce statistically significant Rho123 accumulation |
| C=C(C)[C@@H]1CC[C@]2(COC(=O)/C=C/c3cc(OC)c(OC)c(OC)c3)CC[C@]3(C)[C@H](CC[C@@H]4[C@@]5(C)CC[C@H](O)C(C)(C)[C@@H]5CC[C@]43C)[C@@H]12 [Compound 3d] | > 50 | 1.00 ± 0.06 | > 50 µM | > 50 | – | – | – | – | Rho123 accumulation / anti-P-gp activity (P-gp): did not induce statistically significant Rho123 accumulation |
| C=C(C)[C@@H]1CC[C@]2(COC(=O)/C=C/c3cc(OC)c(OC)cc3OC)CC[C@]3(C)[C@H](CC[C@@H]4[C@@]5(C)CC[C@H](O)C(C)(C)[C@@H]5CC[C@]43C)[C@@H]12 [Compound 3e] | > 50 | 0.78 ± 0.01 | > 50 µM | > 50 | – | – | – | – | Rho123 accumulation / anti-P-gp activity (P-gp): did not induce statistically significant Rho123 accumulation |
| C=C(C)[C@@H]1CC[C@]2(C(=O)NCc3cc(OC)c(OC)c(OC)c3)CC[C@]3(C)[C@H](CC[C@@H]4[C@@]5(C)CC[C@H](O)C(C)(C)[C@@H]5CC[C@]43C)[C@@H]12 [Compound 4] | 34.4 ± 2.59 | – | 25 µM and 25.0 µM | 19.7 ± 0.59 | – | 1.04 ± 0.01 | – | – | toxicity (K562/Dox cells; K562/Dox, MTT): more than 55%; fold less active against P-gp than carbamate 6d (P-gp; ratio of MEC values, Rho123): 32; toxicity (K562 cells): more than 55% |
| C=C(C)[C@@H]1CC[C@]2(COC(=O)Nc3cc(OC)c(OC)c(OC)c3)CC[C@]3(C)[C@H](CC[C@@H]4[C@@]5(C)CC[C@H](O)C(C)(C)[C@@H]5CC[C@]43C)[C@@H]12 [Compound 6a] | > 50 | 1.62 ± 0.10 | 1.56 µM | > 50 | 1.33 ± 0.11 | 1.20 ± 0.08 | 1.12 ± 0.005 | 1.12 ± 0.02 | FAR (fluorescence activity ratio) (P-gp; 0.78 µM): 0.98 ± 0.02; FAR (fluorescence activity ratio) (P-gp; 1.56 µM): 1.17 ± 0.02 |
| C=C(C)[C@@H]1CC[C@]2(COC(=O)NCc3ccc(OC)cc3)CC[C@]3(C)[C@H](CC[C@@H]4[C@@]5(C)CC[C@H](O)C(C)(C)[C@@H]5CC[C@]43C)[C@@H]12 [Compound 6b] | > 50 | 1.60 ± 0.07 | 50 µM | > 50 | 0.90 ± 0.11 | – | – | – | – |
| C=C(C)[C@@H]1CC[C@]2(COC(=O)NCc3ccc(OC)c(OC)c3)CC[C@]3(C)[C@H](CC[C@@H]4[C@@]5(C)CC[C@H](O)C(C)(C)[C@@H]5CC[C@]43C)[C@@H]12 [Compound 6c] | > 50 | 1.97 ± 0.15 | 3.12 µM | > 50 | 1.65 ± 0.11 | 1.40 ± 0.06 | 1.13 ± 0.03 | 1.23 ± 0.01 | FAR (fluorescence activity ratio) (P-gp; 1.56 µM): 1.00 ± 0.02 |
| C=C(C)[C@@H]1CC[C@]2(COC(=O)NCc3cc(OC)c(OC)c(OC)c3)CC[C@]3(C)[C@H](CC[C@@H]4[C@@]5(C)CC[C@H](O)C(C)(C)[C@@H]5CC[C@]43C)[C@@H]12 [Compound 6d] | > 50 | 2.80 ± 0.32 | 0.78 µM | > 50 | 2.48 ± 0.29 | – | 1.64 ± 0.16 | 1.88 ± 0.17 | FAR (fluorescence activity ratio) (P-gp; 0.78 µM): 1.16 ± 0.03; FAR (fluorescence activity ratio) (P-gp; 1.56 µM): 1.27 ± 0.08 |
| C=C(C)[C@@H]1CC[C@]2(COC(=O)NCCc3ccc(OC)cc3)CC[C@]3(C)[C@H](CC[C@@H]4[C@@]5(C)CC[C@H](O)C(C)(C)[C@@H]5CC[C@]43C)[C@@H]12 [Compound 6e] | > 50 | 1.53 ± 0.09 | 50 µM and 50.0 µM | > 50 | 1.04 ± 0.11 | – | – | – | – |
| C=C(C)[C@@H]1CC[C@]2(COC(=O)NCCc3ccc(OC)c(OC)c3)CC[C@]3(C)[C@H](CC[C@@H]4[C@@]5(C)CC[C@H](O)C(C)(C)[C@@H]5CC[C@]43C)[C@@H]12 [Compound 6f] | > 50 | 2.27 ± 0.31 | 1.56 µM | > 50 | 1.95 ± 0.25 | 1.73 ± 0.18 | 1.25 ± 0.02 | 1.45 ± 0.16 | FAR (fluorescence activity ratio) (P-gp; 0.78 µM): 1.02 ± 0.02; FAR (fluorescence activity ratio) (P-gp; 1.56 µM): 1.13 ± 0.04 |
| C=C(C)[C@@H]1CC[C@]2(COC(=O)N3CCNCC3)CC[C@]3(C)[C@H](CC[C@@H]4[C@@]5(C)CC[C@H](O)C(C)(C)[C@@H]5CC[C@]43C)[C@@H]12 [Compound 6h] | 12.5 ± 0.5 | – | – | 4.6 ± 0.24 | – | – | – | 1.06 ± 0.08 | toxicity (K562/Dox cells; K562/Dox, MTT): more than 55%; Rho123 accumulation / anti-P-gp activity (P-gp): did not induce statistically significant Rho123 accumulation; toxicity (K562 cells): more than 55% |
| C=C(C)[C@@H]1CC[C@]2(COC(=O)NCCN3CCN(C(=O)OC(C)(C)C)CC3)CC[C@]3(C)[C@H](CC[C@@H]4[C@@]5(C)CC[C@H](O)C(C)(C)[C@@H]5CC[C@]43C)[C@@H]12 [Compound 6j] | > 50 | 2.57 ± 0.11 | 12.50 µM | > 50 | 1.68 ± 0.03 | 1.25 ± 0.02 | – | 1.08 ± 0.04 | – |
| C=C(C)[C@@H]1CC[C@]2(COC(=O)NCCN3CCNCC3)CC[C@]3(C)[C@H](CC[C@@H]4[C@@]5(C)CC[C@H](O)C(C)(C)[C@@H]5CC[C@]43C)[C@@H]12 [Compound 6k] | 27 ± 1.34 | – | 1.56 µM | 9.4 | – | – | 1.48 ± 0.07 | 2.24 ± 0.24 | toxicity (K562/Dox cells; K562/Dox, MTT): more than 55%; FAR (fluorescence activity ratio) (P-gp; 0.78 µM): 1.03 ± 0.17; FAR (fluorescence activity ratio) (P-gp; 1.56 µM): 1.35 ± 0.08; toxicity (K562 cells): more than 55%; IC50 (K562 cells; K562): 9.44 ± 0.08 µM |
| C=C(C)[C@@H]1CC[C@]2(COC(=O)NCc3ccc(N4CCN(C)CC4)cc3)CC[C@]3(C)[C@H](CC[C@@H]4[C@@]5(C)CC[C@H](O)C(C)(C)[C@@H]5CC[C@]43C)[C@@H]12 [Compound 6l] | 17.4 ± 0.59 | – | 6.25 µM | 8 ± 1.98 | – | 1.55 ± 0.03 | 1.08 ± 0.05 | 1.30 ± 0.04 | toxicity (K562/Dox cells; K562/Dox, MTT): more than 55%; toxicity (K562 cells): more than 55% |
| COc1cccc2c1C(=O)c1c(O)c3c(c(O)c1C2=O)C[C@@](O)(C(=O)CO)C[C@@H]3O[C@H]1C[C@H](N)[C@H](O)[C@H](C)O1 [Doxorubicin, Doxorubicin hydrochloride, reference compound] | 84.2 ± 7.08 | – | – | 2.61 ± 0.7 | – | – | – | – | fold resistance of K562/Dox versus K562 (K562/Dox cells; ratio of IC50 values, MTT): 32.3 |
| COc1ccc(CCN(C)CCCC(C#N)(c2ccc(OC)c(OC)c2)C(C)C)cc1OC (stereo not shown) [Verapamil, Verapamil hydrochloride, reference compound] | – | – | – | – | – | – | – | – | inhibition on proliferation / toxicity (K562/Dox cells; 50 μM (highest concentration assayed), K562/Dox): not toxic; IC50 (K562/Dox cells): > 50 µM; inhibition on proliferation / toxicity (K562 cells; 50 μM (highest concentration assayed), K562): not toxic; IC50 (K562 cells; Homo sapiens, K562): > 50 µM |
